Data as given in patent publication US10087144B2, “Agents for use in the treatment of cardiovascular and inflammatory diseases structurally based on 4(1 H)-quinolone” (UCL Business PLC, priority 2015, dated 2018).
Read-outs that look alike come from different tables or passages of the source.

Experiments:
[1] = test system: rat mesenteric arteries; assay: Vasoreactivity in rat mesenteric arteries in vitro (relaxation of U46619-contracted vessels, tension myograph); conditions: for EC50: vasorelaxation, calculated from concentration-response curves
Experimental: Male rats (Sprague-Dawley; 200-250 g) were stunned and killed by cervical dislocation. The mesentery was removed and third-order arteries mounted in an automated tension myograph (Danish Myotechnology). After an equilibration period of 45 min, vessels were normalized and diameter determined. Following normalization, each vessel was contracted repeatedly with the thromboxane A2-mimetic 9,11-dideoxy-11^α,9^α-epoxymethano-prostaglandin F2α (U46619; 1 μM) until the response was reproducible. The vessels were then washed to restore basal tone before contracting to approximately 50% of the maximum U46619-induced response. Once a stable response to U46619 was achieved, cumulative concentration-response curves were constructed with a variety of NPR-C agonists of the invention at varying concentrations (0.001-30 μM), or vehicle (DMSO). In some studies, concentration-response curves to NPR-C agonists were conducted in the presence of the NPR-C antagonist M372049 (10 μM). Only one curve to any one agonist was constructed in any single tissue.

[2] = test system: human platelets; assay: Human platelet aggregation in platelet rich plasma; assay type: cell-based; conditions: for inhibition at 1 µM: Homo sapiens
Experimental: Blood samples (35 ml) were taken from healthy volunteers who had abstained from aspirin, non-steroidal anti-inflammatory drugs or paracetamol for 14 days. Blood was collected by venepuncture into tri-sodium citrate (3.2% w/v) and centrifuged at 175 g for 15 min to obtain platelet rich plasma (PRP). Platelet poor plasma (PPP) was obtained by centrifugation of PRP at 15000 g for 5 min. The PRP (100 μl) was then added to the wells of 96-well plates and incubated for 15 mins with representative NPR-C agonists of the invention or vehicle (DMSO). Subsequently, platelet agonists (10 μl each) were added to wells in triplicate: adenosine diphosphate (ADP, 0.1-30 μM), arachidonic acid (AA, 0.03-1.3 mM), collagen (type I equine tendon 0.1-30 μg/ml), adrenaline (0.001-100 μM), ristocetin (0.2-3 mg/ml), TRAP6 (thrombin receptor activating peptide) amide (SFLLRN; 0.1-30 μM), U46619 (0.1-30 μM) or vehicle. Plates were then immediately placed in a 96-well plate reader and absorbance determined at 595 nm every 15 s for 16 min between vigorous shaking at 37° C. Changes in absorbance were converted to % aggregation by reference to the absorbances of PRP and PPP.

[3] = test system: rat mesenteric artery smooth muscle cells; assay: Ca2+ flux in response to Angiotensin II in isolated rat mesenteric artery smooth muscle cells (FLIPR); assay type: cell-based; conditions: for inhibition at 1 µM / inhibition at 10 µM: Rattus norvegicus; for inhibition at 1 µM: read-out: % inhibition 1 μM; for inhibition at 10 µM: read-out: % inhibition 10 μM
Experimental: Mesenteric artery smooth muscle cells were isolated from male Sprague-Dawley rats (200-250 g). Mesenteric arteries were dissected, cleared of extraneous tissue and incubated in an enzyme solution containing collagenase type I (1 mg/ml), soybean trypsin inhibitor (0.25 mg/ml), bovine albumin (1 mg/ml), CaCl2 (0.2 mM), 100 U/ml penicillin (100 U/ml) and streptomycin (100 μg/ml) in a humidified incubator with 5% CO2 in air. The enzyme solution was replenished at 30 min intervals and cells were pelleted by centrifugation (200 g, 5 min) and differentially plated (×2) for 15 min in Dulbecco's Modified Eagle's Medium (DMEM) supplemented with penicillin (100 U/ml), streptomycin (100 μg/ml), L-Glutamine (2 mM) and 10% heat inactivated New Zealand foetal calf serum. Cells were passaged by trypsinisation and viability determined by trypan blue exclusion.
Measurements of Ca^2+ flux in response to Angiotensin II were conducted using a Fluorescent Imaging Plate Reader (FLIPR; Molecular Devices). Cells were plated at a density of 10,000 cells/well into black, clear-bottomed 96-well plates in DMEM supplemented with penicillin (100 U/ml), streptomycin (100 μg/ml), L-Glutamine (2 mM) and 10% heat inactivated New Zealand foetal calf serum. 24 hrs later the cells were incubated with Fluo-3-AM (4 μM) for 60 min at 37° C. Once dye-loaded, the cells were washed thoroughly with the proprietary assay buffer to remove any unincorporated dye. The cells were then incubated with varying concentrations of a number of representative NPR-C agonist molecules of the invention, C-type natriuretic peptide or vehicle (DMSO) and placed into the FLIPR. After 15 mins, Angiotensin II (100 nM) was automatically dispensed into each well and the fluorescence signal followed for 5 mins. Potency was determined by comparison of the peak fluorescence in each test well (run in triplicate) with that of the control (Angiotensin II alone). Background fluorescence (assay buffer only) was subtracted from all values.

[4] = molecular target: Human NPR-C (Homo sapiens (Human), UniProt P17342); assay: Surface plasmon resonance (SPR) spectroscopy, binding to immobilised human NPR-C; conditions: FIGS. 5, 6 and 7
Experimental: All SPR analysis was performed on a BIAcore T200 system using series S CM5 sensor chips. Data processing and analysis were performed using BIAevaluation software and Scrubber2. All sensorgrams were double referenced by subtracting the response on a reference flowcell and a blank sample.
Human NPR-C (OriGene, Rockville, USA), was covalently attached to a CM5 chip via amine coupling. A surface density of 2700 RU was used for measurements with natriuretic peptides and the NPR-C antagonist M372049, and a density of 5200 RU for measurements with compound 118. Sequential injections of CNP (0.25, 0.50, 1, 2 & 4 nM) were performed at a flow rate of 30 μL/min for (240 s for each), followed by a dissociation time of 3600 s. Binding site saturation was observed and the surface was regenerated by two injections of 1M NaCl (200 s each). Binding of M372049 (0.94, 1.88, 3.75, 7.5, 15, 30 & 60 nM) and Compound 118 (1.17, 2.34, 4.70, 9.38, 18.75, 37.50, 75 & 150 μM) was analysed by sequential injections (120 s for M372049, 30 s for compound 118) followed by undisturbed dissociation (600 s for M372049, 30 s for compound 118), during which curves returned to baseline. Kinetic parameters were calculated assuming a simple 1:1 (Langmuir) binding.

[5] = test system: arterial blood pressure; assay: Mean arterial pressure measurements in anesthetized mice; assay type: in vivo
Experimental: Mice were maintained under anesthesia (isoflurane, 1-1.5%, in 100% O2 at 0.4 L·min) throughout the experiment and body temperature was kept constant at 37.5° C. A Millar pressure transducer catheter (Millar Instruments, Houston, Tex., USA) was placed in the carotid artery for arterial blood pressure (BP) measurements and a tube catheter (polyvinyl tubing, 0.61 mm outside diameter) in the jugular vein for intravenous bolus doses of 118 ([…]) and vehicle (10% DMSO in PBS) using a 0.5 mL insulin syringe. A pump (flow 0.5 ml/h) was used for infusion of 118 (1 mg/kg/min) or vehicle (10% dimethylsulfoxide; DMSO in PBS) during 10 min. BP was evaluated throughout.

[6] = 1 μM compound, inhibition of Angiotensin II (100 nM) Ca2+ flux peak fluorescence
[7] = 10 μM compound, inhibition of Angiotensin II (100 nM) Ca2+ flux peak fluorescence

Chain of Human NPR-C (P17342 27-541): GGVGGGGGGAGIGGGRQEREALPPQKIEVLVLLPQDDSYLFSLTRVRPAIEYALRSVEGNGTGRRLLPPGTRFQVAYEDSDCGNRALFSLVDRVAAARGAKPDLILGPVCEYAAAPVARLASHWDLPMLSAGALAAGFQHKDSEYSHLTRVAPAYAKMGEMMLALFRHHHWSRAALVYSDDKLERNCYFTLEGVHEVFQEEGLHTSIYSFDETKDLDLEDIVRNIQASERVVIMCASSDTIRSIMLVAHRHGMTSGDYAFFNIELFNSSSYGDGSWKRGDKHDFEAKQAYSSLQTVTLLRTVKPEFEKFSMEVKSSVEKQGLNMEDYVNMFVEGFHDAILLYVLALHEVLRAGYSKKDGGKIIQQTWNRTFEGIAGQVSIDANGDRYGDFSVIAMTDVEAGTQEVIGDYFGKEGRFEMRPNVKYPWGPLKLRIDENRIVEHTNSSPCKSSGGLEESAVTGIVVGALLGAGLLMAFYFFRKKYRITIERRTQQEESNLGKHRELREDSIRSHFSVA

EC50 [1] [µM]	Compound	inhibition at 1 µM ([1]; Rattus norvegicus, 1 μM, U46619-contracted third-order arteries) [%]	inhibition at 3 µM ([1]; Rattus norvegicus, 3 μM, U46619-contracted third-order arteries) [%]	inhibition at 10 µM ([1]; Rattus norvegicus, 10 μM, U46619-contracted third-order arteries) [%]	inhibition at 30 µM ([1]; Rattus norvegicus, 30 μM, U46619-contracted third-order arteries) [%]	EC50 ([1]; Rattus norvegicus) [µM]	inhibition at 1 µM [2] [%]	inhibition at 1 µM [3] [%]	inhibition at 10 µM [3] [%]	binding to human NPR-C (SPR) [4]	inhibition at 1 µM [3, 6] [%]	inhibition at 10 µM [3, 7] [%]	change in BP after intravenous bolus doses ([5]; i.v. bolus, FIG. 2)	change in BP during infusion ([5]; infusion 1 mg/kg/min during 10 min, FIG. 3)	% inhibition of human platelet aggregation (at 1 microM) [2] [%]	% inhibition 1 μM [3, 6] [%]	% inhibition 10 μM [3, 7] [%]
–	CC(C)(C)OC(=O)CNC(=O)c1cn(Cc2ccccc2)c2ccc(Br)cc2c1=O [Compound 28, tert-butyl 2-(1-benzyl-6-bromo-4-oxo-1,4-dihydroquinoline-3-carboxamido)acetate]	22	55	97	100	1.6	14.3	100	100	–	–	–	–	–	–	–	–
–	O=C(O)CNC(=O)c1cn(Cc2ccccc2)c2ccc(Br)cc2c1=O [Compound 118, 2-(1-benzyl-6-bromo-4-oxo-1,4-dihydroquinoline-3-carboxamido)acetic acid]	–	–	–	–	2.8	16.7	–	–	binding	95	100	dose-dependent decrease in BP	reduction in BP that was sustained during 10 minutes	–	–	–
0.0138	C-type natriuretic peptide [CNP, reference compound]	–	–	–	–	–	–	–	–	binding	–	–	–	–	71.8	100	100
